Here are results for five compounds from patent US20210386367A1, “DEVICES AND SYSTEMS FOR GASTROINTESTINAL MICROBIOME DETECTION AND MANIPULATION” (Progenity, Inc., priority 2018, published 2021).

Assay [1] concerns Bacteroides fragilis clinical isolates. The experiment in a line: MIC distribution against clinical isolates. It is filed as cell-based. Particulars: 30 B. fragilis isolates. The method in brief: (§1)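 MIC is the lowest agent concentration preventing growth, determined by broth or agar dilution with serial compound dilutions and incubation under appropriate conditions (e.g., overnight at 37° C.). MIC90 is the concentration inhibiting ≥90% of isolates in the test population.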

In assay [2] the test system is Bacteroides spp. spontaneous mutants. Nature of the assay: Broth microdilution MIC of spontaneous mutants. The class given is cell-based. How it is done:
Select isolates were subcultured onto agar containing drug at the selection concentration, were identified by MALDI, and were frozen for broth microdilution MIC testing as described below.
To determine whether colonies growing on drug selection plates had elevated MIC values to the selecting antibiotic, susceptibility testing by broth microdilution was conducted on isolated mutants following methodology recommended by CLSI (1), (2), and (3) “Performance Standards for Antimicrobial Susceptibility Testing; Twenty-Eighth Informational Supplement.,” CLSI document M100-S28, 2018.
All wells in columns 2 through 12 of a standard 96-well microdilution plate (Costar 3795) were filled with 150 μL of the appropriate diluent. Then, 300 μL of the test agents were added to the wells of column 1 of the plates at […] the highest final concentration to be tested. Serial two-fold dilutions were made across the rows through column 11 using the Biomek 2000. The wells of column 12 contained no drug and served as the growth control wells. This plate served as the “mother plate” from which selected MIC assay plates or “daughter plates” were made.
Daughter plates for anaerobic organisms were transferred to a Bactron II anaerobic chamber (Sheldon Manufacturing Inc., Cornelius, Oreg.) to reduce for 1 hour prior to inoculation. The inoculum for each organism was prepared in the anaerobic chamber and dispensed into sterile disposable reservoirs. Inoculation was completed using a multichannel pipette to transfer 10 μL of the inoculum into each well of the daughter plate. This yielded a final cell concentration in the daughter plates of approximately 1×10^6 CFU/mL.
Background: Dilution methods test growth across graded concentrations, often in twofold steps.

Assay [3] relates to Streptococcus agalactiae clinical isolates. Nature of the assay: MIC distribution against clinical isolates. The class given is cell-based. Particulars: 20 S. agalactiae isolates. Put shortly: as §1
The subject of assay [4] is B. fragilis ATCC 25285. Nature of the assay: Broth microdilution MIC (time-kill study). It is filed as cell-based, Bacteroides fragilis. Particulars: B. fragilis MMX 123 ATCC 25285.
Assay [5] concerns Streptococcus spp. spontaneous mutants. The experiment in a line: organism not typed. The class given is cell-based. The method in brief:
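Spontaneous mutants from drug selection plates were tested by CLSI broth microdilution in MHB II with two-fold serial drug dilutions. Inoculum was about 5×10^5 CFU/mL, incubated aerobically at 35° C. for 18-20 hr. MIC was the lowest concentration inhibiting visible growth.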

Read-outs that look alike come from different tables or passages of the source. A value given as a limit tells only on which side of the number the result lay.

Turning to `Cc1ncc([N+](=O)[O-])n1CCO` [MTZ], the “Cumulative percentage of isolates inhibited at MIC” value in assay [1] (MIC 0.5 μg/mL) is 30.0%; in assay [1] (MIC 1 μg/mL) it was 76.7%; in assay [1] (MIC 2 μg/mL) it was 100.0%; in assay [1] (MIC […]) it was 6.7%. Moreover, the “Number of test isolates at MIC” value in assay [1] (MIC 0.5 μg/mL) came out at 7; in assay [1] (MIC 1 μg/mL), 14; in assay [1] (MIC 2 μg/mL), 7; in assay [1] (MIC […]), 2. The MIC was 0.25 µg/mL in assay [2] (B. fragilis ATCC 25285, selected on rifaximin 4X MIC, Colony A); 0.5 µg/mL in assay [2] (B. fragilis ATCC 25285, selected on rifaximin 4X MIC, Colony B); 0.5 µg/mL in assay [2] (B. fragilis ATCC 25285, selected on rifaximin 8X MIC, Colony A); 0.25 µg/mL in assay [2] (B. fragilis ATCC 25285, selected on rifaximin 8X MIC, Colony B); 0.25 µg/mL in assay [2] (B. fragilis ATCC 25285 Parent); 2 µg/mL in assay [2] (B. ovatus MMX 3503, selected on rifaximin 4X MIC, Colony A). Besides, the MIC was 0.5 µg/mL in assay [2] (B. ovatus MMX 3503, selected on rifaximin 4X MIC, Colony B); 1 µg/mL in assay [2] (B. ovatus MMX 3503, selected on rifaximin 8X MIC, Colony A); 2 µg/mL in assay [2] (B. ovatus MMX 3503, selected on rifaximin 8X MIC, Colony B); 0.5 µg/mL in assay [2] (B. ovatus MMX 3503 Parent); 1 µg/mL in assay [2] (B. vulgatus ATCC 8482, selected on ceftriaxone 4X MIC, Colony A); 1 µg/mL in assay [2] (B. vulgatus ATCC 8482, selected on ceftriaxone 4X MIC, Colony B). In addition, the MIC in assay [2] (B. vulgatus ATCC 8482, selected on rifaximin 4X MIC, Colony A) turned out to be 1 µg/mL; in assay [2] (B. vulgatus ATCC 8482, selected on rifaximin 4X MIC, Colony B) it was 1 µg/mL; in assay [2] (B. vulgatus ATCC 8482, selected on rifaximin 8X MIC, Colony A) it was 1 µg/mL; in assay [2] (B. vulgatus ATCC 8482, selected on rifaximin 8X MIC, Colony B) it was 1 µg/mL; in assay [2] (B. vulgatus ATCC 8482 Parent (Table 50)), 1 µg/mL; in assay [2] (B. vulgatus ATCC 8482 Parent (Table 54)), 1 µg/mL.
As to `COc1c(N2C[C@@H]3CCCN[C@@H]3C2)c(F)cc2c(=O)c(C(=O)O)cn(C3CC3)c12` [moxifloxacin], in assay [3] (MIC 0.06 μg/mL), the “Cumulative percentage of isolates inhibited at MIC” value is listed as 15.0% and the “Number of test isolates at MIC” value was found to be 3.
For the compound `CN[C@H](CC(C)C)C(=O)N[C@H]1C(=O)N[C@@H](CC(N)=O)C(=O)N[C@H]2C(=O)N[C@H]3C(=O)N[C@H](C(=O)N[C@H](C(=O)O)c4cc(O)cc(O)c4-c4cc3ccc4O)[C@H](O)c3ccc(c(Cl)c3)Oc3cc2cc(c3O[C@@H]2O[C@H](CO)[C@@H](O)[C@H](O)[C@H]2O[C@H]2C[C@](C)(N)[C@H](O)[C@H](C)O2)Oc2ccc(cc2Cl)[C@H]1O` [vancomycin, Vancomycin], in assay [3] (MIC 1 μg/mL), the “Cumulative percentage of isolates inhibited at MIC” value amounted to 100.0% and the “Number of test isolates at MIC” value is listed as 1. Also, in assay [4] (Bacteroides fragilis, ATCC25285, read-out: MIC), the MIC is greater than 16 µg/mL.
As for Penicillin, the MIC in assay [5] (S. agaloctiae ATCC 13813, selected on rifaximin 4X MIC, Colony A) came out at 0.015 µg/mL; in assay [5] (S. agaloctiae ATCC 13813, selected on rifaximin 4X MIC, Colony B), 0.015 µg/mL; in assay [5] (S. agaloctiae ATCC 13813, selected on rifaximin 8X MIC, Colony A) it was 0.015 µg/mL; in assay [5] (S. agaloctiae ATCC 13813, selected on rifaximin 8X MIC, Colony B) it was 0.015 µg/mL; in assay [5] (S. agaloctiae ATCC 13813 Parent) it was 0.015 µg/mL; in assay [5] (S. pneumoniae ATCC 49619, selected on rifaximin 4X MIC, Colony A) it was 0.12 µg/mL. Besides, the MIC in assay [5] (S. pneumoniae ATCC 49619, selected on rifaximin 4X MIC, Colony B) is 0.25 µg/mL; in assay [5] (S. pneumoniae ATCC 49619, selected on rifaximin 8X MIC, Colony A) it was 0.25 µg/mL; in assay [5] (S. pneumoniae ATCC 49619, selected on rifaximin 8X MIC, Colony B) it was 0.25 µg/mL; in assay [5] (S. pneumoniae ATCC 49619 Parent) it was 0.25 µg/mL; in assay [5] (S. pyogenes ATCC 49399, selected on rifaximin 4X MIC, Colony A), 0.004 µg/mL; in assay [5] (S. pyogenes ATCC 49399, selected on rifaximin 4X MIC, Colony B), 0.008 µg/mL. In addition, the MIC in assay [5] (S. pyogenes ATCC 49399, selected on rifaximin 8X MIC, Colony A) came to 0.004 µg/mL; in assay [5] (S. pyogenes ATCC 49399, selected on rifaximin 8X MIC, Colony B) it was 0.004 µg/mL; in assay [5] (S. pyogenes ATCC 49399 Parent) it was 0.008 µg/mL.
In assay [4], “piperacillin/tazobactam [piperacillin-tazobactam]” returned an MIC of 8 µg/mL.

In general, MIC refers to the lowest concentration that inhibits growth of the organism.
